Data from paper PMC5706701, “Development of a homogenous high-throughput assay for inositol hexakisphosphate kinase 1 activity” (PLoS ONE, 2017).
Counter-ions that a name gives are not always drawn. Like-named read-outs stand apart in the source and are kept apart here.

Target: T1, Human IP6K1 (Homo sapiens, UniProt Q92551)
T1 construct: GST (N, cleaved yes); made in house; host or cells: C43 E. coli, pGEX-6P-2
Assay: IP6K1 high-throughput screen of the Sigma LOPAC (ADP-Glo Max, single point);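 note: final compound concentration 10µM in 5% DMSO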
Assay type: biochemical

[1] = LOPAC single-point screen, ADP-Glo Max raw signal per well
[2] = LOPAC single-point screen, Z-score from raw signal with plate average and StDev
[3] = Sigma LOPAC single-point screen, ADP-Glo Max raw signal per well
[4] = Sigma LOPAC single-point screen, Z-score from plate average and StDev
[5] = LOPAC single-point screen, Z-score against plate average and StDev
[6] = LOPAC single-point screen, ADP-Glo Max luminescence raw signal per well
[7] = LOPAC single-point screen, Z-score relative to plate average and StDev

T1 sequence (Q92551 whole entry): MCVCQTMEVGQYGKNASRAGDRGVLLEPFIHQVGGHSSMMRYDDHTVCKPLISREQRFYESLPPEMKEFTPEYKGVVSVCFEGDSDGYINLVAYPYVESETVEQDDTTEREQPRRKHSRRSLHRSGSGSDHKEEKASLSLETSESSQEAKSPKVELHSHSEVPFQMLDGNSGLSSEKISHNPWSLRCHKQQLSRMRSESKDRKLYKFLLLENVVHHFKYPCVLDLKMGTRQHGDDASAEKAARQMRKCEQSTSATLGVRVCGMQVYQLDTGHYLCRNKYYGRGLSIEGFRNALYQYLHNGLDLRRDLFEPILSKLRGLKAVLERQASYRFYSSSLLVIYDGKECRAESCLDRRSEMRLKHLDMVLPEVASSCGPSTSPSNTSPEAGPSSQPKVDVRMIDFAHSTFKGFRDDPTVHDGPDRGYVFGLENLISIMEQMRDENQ

## CCc1ccccc1OC[C@@H](O)CN[C@H]1CCCc2ccccc21.O=C(O)C(=O)O [SR 59230A oxalate]
[1]
  Raw Signal: 55204
[2]
  Z-score: -0.1593

## Br.COc1ccc(-c2ccc(=N)n(CCCC(=O)O)n2)cc1 [SR-95531]
  Raw Signal: 59972
  Z-score: 0.7671

## CN(C)c1ccc(/C=C2\C(=O)Nc3ccccc32)cc1 [SU 4312]
[3]
  Raw Signal: 60273
[4]
  Z-score: 0.8255

## CN(C)S(=O)(=O)c1ccc2c(c1)/C(=C/c1cc3c([nH]1)CCCC3)C(=O)N2 [SU 6656]
[1]
  Raw Signal: 57564
[5]
  Z-score: 0.2992

## CC(C)(C)NCC(O)c1ccc(O)c(CO)c1 (centres unmarked) [Salbutamol]
[2]
  Z-score: -0.2712

## OCc1cc(C(O)CNCCCCCCOCCCCc2ccccc2)ccc1O (centres unmarked) [Salmeterol]
[6]
  Raw Signal: 52718
[7]
  Z-score: -0.6423

## CCCCCCCCCC[Si](C)(C)CCC(=O)NC(Cc1ccc(C)cc1)c1ccccc1 (centres unmarked) [Sandoz 58-035]
[1]
  Raw Signal: 56427
[2]
  Z-score: -0.2617

## C[n+]1cc2c3c(ccc2c2ccc4cc5c(cc4c21)OCO5)OCO3 [Sanguinarine chloride]
[6]
  Raw Signal: 52602
[7]
  Z-score: -0.6648

## C[Se]C[C@H](N)C(=O)O.Cl [Se-(methyl)selenocysteine hydrochloride]
[1]
  Raw Signal: 55528
[5]
  Z-score: 0.1906

## CC(C)[C@@H]1NC(=O)[C@H](CCCCN)NC(=O)[C@@H](Cc2c[nH]c3ccccc23)NC(=O)[C@H](Cc2ccc(O)cc2)NC(=O)[C@H](C)N(C)C(=O)[C@H](Cc2ccccc2)NC1=O [Seglitide]
[1]
  Raw Signal: 55030
[2]
  Z-score: -0.1931

## Cl.NNC(N)=O [Semicarbazide hydrochloride]
[1]
  Raw Signal: 55828
[5]
  Z-score: -0.03804

## C[C@H](O)C(=O)C1=Nc2c(nc(N)[nH]c2=O)NC1 [Sepiapterin]
[3]
  Raw Signal: 58753
[4]
  Z-score: 0.5302

## NCCc1c[nH]c2ccc(O)cc12 [Serotonin hydrochloride]
[3]
  Raw Signal: 60327
[4]
  Z-score: 1.048

## CC(C)COC(=O)OCN1C(=O)CN(CCN2CC(=O)N(COC(=O)OCC(C)C)C(=O)C2)CC1=O [Sobuzoxane]
[1]
  Raw Signal: 54088
[2]
  Z-score: -0.3761

## NC(=O)C(=O)O [Sodium Oxamate]
[1]
  Raw Signal: 56283
[5]
  Z-score: 0.3175

## C[C@H](CCC(=O)NCCS(=O)(=O)O)[C@H]1CC[C@H]2[C@@H]3[C@H](O)C[C@@H]4C[C@H](O)CC[C@]4(C)[C@H]3C[C@H](O)[C@]12C [Sodium Taurocholate]
  Raw Signal: 58351
  Z-score: 0.07713

## NCCCCNCCCN [Spermidine trihydrochloride]
[3]
  Raw Signal: 60576
[4]
  Z-score: 0.8844

## NCCCNCCCCNCCCN [Spermine tetrahydrochloride]
[6]
  Raw Signal: 52988
[7]
  Z-score: -0.5898

## CCCCCCCCCCCCC/C=C/[C@@H](O)[C@@H](N)CO [Sphingosine]
[6]
  Raw Signal: 64012
LOPAC single-point screen, Z-score from plate average and StDev
  Z-score: 1.552

## O=C(CCCN1CCC2(CC1)C(=O)NCN2c1ccccc1)c1ccc(F)cc1 [Spiperone hydrochloride]
[6]
  Raw Signal: 52620
[7]
  Z-score: -0.6613

## CC(=O)S[C@@H]1CC2=CC(=O)CC[C@]2(C)[C@H]2CC[C@@]3(C)[C@@H](CC[C@@]34CCC(=O)O4)[C@H]12 [Spironolactone]
[6]
  Raw Signal: 50910
[7]
  Z-score: -0.9935

## O=C1NCN(c2ccccc2)C12CCN(CC1COc3ccccc3O1)CC2 (centres unmarked) [Spiroxatrine]
[1]
  Raw Signal: 55965
[5]
  Z-score: -0.01142

## C[N+](C)(C)CCOC(=O)CCC(=O)OCC[N+](C)(C)C [Succinylcholine chloride]
[6]
  Raw Signal: 51489
[7]
  Z-score: -0.881

## Nc1ccc(S(=O)(=O)Nc2ccnn2-c2ccccc2)cc1 [Sulfaphenazole]
[1]
  Raw Signal: 54328
[2]
  Z-score: -0.3295

## CC1=C(CC(=O)O)c2cc(F)ccc2/C1=C\c1ccc(S(C)(=O)=O)cc1 [Sulindac sulfone]
[1]
  Raw Signal: 56423
[5]
  Z-score: 0.07756

## CC1=C(CC(=O)O)c2cc(F)ccc2/C1=C\c1ccc([S+](C)[O-])cc1 (centres unmarked) [Sulindac]
[6]
  Raw Signal: 51494
[7]
  Z-score: -0.8801

## Cc1ccc(C(=O)Nc2ccc(S(=O)(=O)O)c3cc(S(=O)(=O)O)cc(S(=O)(=O)O)c23)cc1NC(=O)c1cccc(NC(=O)Nc2cccc(C(=O)Nc3cc(C(=O)Nc4ccc(S(=O)(=O)O)c5cc(S(=O)(=O)O)cc(S(=O)(=O)O)c45)ccc3C)c2)c1 [Suramin hexasodium]
[6]
  Raw Signal: 10286
[7]
  Z-score: -8.886

## COC(=O)c1c(-c2cc(OC)c(OC)c(OC)c2)c2ccnc(OCc3ncccn3)c2c(=O)n1Cc1ccnc(C)c1 [T-0156]
[6]
  Raw Signal: 53574
[7]
  Z-score: -0.476

## COC(=O)c1c(-c2cc(OC)c(OC)c(OC)c2)c2ccc(OCc3ccccn3)cc2c(=O)n1-c1ccc(N)cc1.O=S(=O)(O)O [T-1032]
[1]
  Raw Signal: 55393
[2]
  Z-score: -0.1226

## Clc1cnc(Oc2ccc(Oc3ncc(Cl)cc3Cl)cc2)c(Cl)c1 [TCPOBOP]
[1]
  Raw Signal: 54822
[2]
  Z-score: -0.2335

## CCSC(=N)Nc1ccc(C(F)(F)F)cc1.Cl [TFPI hydrochloride]
[1]
  Raw Signal: 53926
[2]
  Z-score: -0.4076

## Cl.O=c1[nH]oc2c1CCNC2 [THIP hydrochloride]
[3]
  Raw Signal: 60339
[4]
  Z-score: 0.8384

## CCN(CC)CCCCCCCCOC(=O)c1cc(OC)c(OC)c(OC)c1.Cl [TMB-8 hydrochloride]
[1]
  Raw Signal: 59541
[5]
  Z-score: 0.2867

## CP(=O)(O)C1=CCNCC1 [TPMPA]
[3]
  Raw Signal: 59668
[4]
  Z-score: 0.708

## C/C(=C\c1ccc(C(=O)O)cc1)c1ccc2c(c1)C(C)(C)CCC2(C)C [TTNPB]
[1]
  Raw Signal: 53849
[2]
  Z-score: -0.4225

## CC/C(=C(\c1ccccc1)c1ccc(OCCN(C)C)cc1)c1ccccc1 [Tamoxifen citrate]
[3]
  Raw Signal: 60879
[4]
  Z-score: 0.9433

## NCCS(=O)(=O)O [Taurine]
[6]
  Raw Signal: 52621
[7]
  Z-score: -0.6611

## CC(=O)O[C@H]1C(=O)[C@@]2(C)[C@H]([C@H](OC(=O)c3ccccc3)[C@]3(O)C[C@H](OC(=O)[C@H](O)[C@@H](NC(=O)c4ccccc4)c4ccccc4)C(C)=C1C3(C)C)[C@]1(OC(C)=O)CO[C@@H]1C[C@@H]2O [Taxol]
[3]
  Raw Signal: 58493
[4]
  Z-score: 0.4797

## Cc1scc2c1N(C(=O)CN1CCN(C)CC1)c1ccccc1NC2=O [Telenzepine dihydrochloride]
[3]
  Raw Signal: 58050
[4]
  Z-score: 0.3937

## COc1cc2nc(N3CCN(C(=O)C4CCCO4)CC3)nc(N)c2cc1OC (centres unmarked) [Terazosin hydrochloride]
[1]
  Raw Signal: 54152
[2]
  Z-score: -0.3637

## CC(C)(C)NCC(O)c1cc(O)cc(O)c1.CC(C)(C)NCC(O)c1cc(O)cc(O)c1.O=S(=O)(O)O (centres unmarked) [Terbutaline hemisulfate]
[3]
  Raw Signal: 59192
[4]
  Z-score: 0.6155

## CC(C)(C)c1ccc(C(O)CCCN2CCC(C(O)(c3ccccc3)c3ccccc3)CC2)cc1 (centres unmarked) [Terfenadine]
[1]
  Raw Signal: 53926
[2]
  Z-score: -0.4076

## CCCCNc1ccc(C(=O)OCCN(C)C)cc1 [Tetracaine hydrochloride]
[1]
  Raw Signal: 56522
[5]
  Z-score: 0.09679

## CCCCCCCCCCCCCCSCC(=O)O [Tetradecylthioacetic acid]
[1]
  Raw Signal: 56618
[5]
  Z-score: 0.1154

## CC[N+](CC)(CC)CC [Tetraethylammonium chloride]
  Raw Signal: 56416
  Z-score: 0.0762
